Activity calls are given as the source filed them. No cut-off for these calls is given here.
Key:
[1] = tested on: A549; test: Induction of apoptosis in human A549 cells assessed as increase in cleaved caspase-3 expression at 2 to 4 uM by Western blot analysis; assay type: functional, cell-based; details: dose 2-4 µM
[2] = molecular target: RAF proto-oncogene serine/threonine-protein kinase (Homo sapiens) (UniProt P04049); test: Inhibition of C-RAF phosphorylation in human A549 cells at 2 to 4 uM by Western blot analysis; assay type: cell-based; details: dose 2-4 µM
[3] = tested on: A549; test: Induction of cell cycle arrest in human A549 cells assessed as decrease in CDK4 level at 2 to 4 uM by Western blot analysis; assay type: functional, cell-based; details: dose 2-4 µM
[4] = tested on: A549; test: Downregulation of PRDX5 level in human A549 cells at 2 to 4 uM by Western blot analysis; assay type: functional, cell-based; details: dose 2-4 µM
[5] = tested on: A549; test: Induction of apoptosis in human A549 cells assessed as late apoptotic cells at 2 uM incubated for 48 hrs by Annexin V-FITC and PI staining based flow cytometric analysis (reference value: 0.73%); assay type: functional
[6] = tested on: A549; test: Induction of intracellular ROS generation in human A549 cells at 2 to 4 uM by DCFH-DA staining based flow cytometry analysis; assay type: functional, cell-based; details: dose 2-4 µM, time 6.0 hrs, TDE = time-dependent effect
[7] = tested on: A549; test: Induction of apoptosis in human A549 cells assessed as decrease in PCNA level at 2 to 4 uM by Western blot analysis; assay type: functional, cell-based; details: dose 2-4 µM
[8] = tested on: A549; test: Induction of intracellular ROS generation in human A549 cells at 2 to 4 uM incubated for 6 hrs by DCFH-DA staining based flow cytometry analysis; assay type: functional, cell-based; details: dose 2-4 µM
[9] = tested on: A549; test: Downregulation of PRDX2 level in human A549 cells at 2 to 4 uM by Western blot analysis; assay type: functional, cell-based; details: dose 2-4 µM
[10] = tested on: MDA-MB-231; test: Antiproliferative activity against human MDA-MB-231 cells assessed as inhibition of cell growth incubated for 48 hrs by MTT assay; assay type: functional, cell-based; details: MDA-MB-231, 48 h
[11] = tested on: A549; test: Induction of apoptosis in human A549 cells assessed as early apoptotic cells at 4 uM incubated for 48 hrs by Annexin V-FITC and PI staining based flow cytometric analysis (reference value: 0.76%); assay type: functional
[12] = tested on: A549; test: Antiproliferative activity against human A549 cells assessed as inhibition of cell growth incubated for 48 hrs by MTT assay; assay type: functional, cell-based; details: A549, 48 h
[13] = Toxicity in C57BL/6J mouse implanted with mouse Lewis lung carcinoma cell line assessed as kidney damage at 0.5 to 1 mg/kg, ip administered every day for 19 days; assay type: organism-based; details: in vivo, 456 h, dose 0.5-1 mg/kg, time 19 day

Sequence of RAF proto-oncogene serine/threonine-protein kinase (Homo sapiens) (P04049 whole entry): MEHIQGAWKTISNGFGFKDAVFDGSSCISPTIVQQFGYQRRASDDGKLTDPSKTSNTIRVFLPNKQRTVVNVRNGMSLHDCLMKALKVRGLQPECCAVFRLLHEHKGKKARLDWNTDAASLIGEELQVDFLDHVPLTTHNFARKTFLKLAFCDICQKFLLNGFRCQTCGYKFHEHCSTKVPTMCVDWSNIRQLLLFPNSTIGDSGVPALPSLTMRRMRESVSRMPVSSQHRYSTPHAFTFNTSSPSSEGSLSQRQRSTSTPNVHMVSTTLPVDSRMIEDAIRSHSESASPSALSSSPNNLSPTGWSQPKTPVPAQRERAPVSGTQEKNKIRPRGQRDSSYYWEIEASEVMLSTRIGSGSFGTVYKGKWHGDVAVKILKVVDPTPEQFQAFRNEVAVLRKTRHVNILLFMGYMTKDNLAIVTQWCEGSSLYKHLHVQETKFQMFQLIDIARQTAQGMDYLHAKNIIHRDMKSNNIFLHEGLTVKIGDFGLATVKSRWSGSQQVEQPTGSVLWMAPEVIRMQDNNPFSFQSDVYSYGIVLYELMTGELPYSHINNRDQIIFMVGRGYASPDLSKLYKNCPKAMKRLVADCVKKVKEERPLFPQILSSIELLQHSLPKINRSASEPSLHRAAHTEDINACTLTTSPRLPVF

inhibition [2]: Active | IC50 [10]: 2.67 µM | IC50 [12]: 1.92 µM
Structure (SMILES): CC1=C(OC(=O)/C=C/c2ccccc2)C(=O)C=C2C1=CC=C1[C@@]2(C)CC[C@@]2(C)[C@@H]3C[C@](C)(C(=O)NCc4nc(C)c(C)nc4C)CC[C@]3(C)CC[C@]12C
Activity [1]: Active | Activity [3]: Active | Activity [4]: Active | Activity [5]: 4.91% | Activity [6]: Tde | Activity [7]: Active | Activity [8]: Active | Activity [9]: Active | Activity [11]: 18.5% | Activity [13]: Non-Toxic

From ChEMBL document CHEMBL5634079, “Development of novel celastrol-ligustrazine hybrids as potent peroxiredoxin 1 inhibitors against lung cancer” (Eur J Med Chem, 2023)
